Reference: patent EP2545917B1, “NOVEL EP4 AGONIST” (Kaken Pharmaceutical Co., Ltd., priority 2010, dated 2011)

Legend:
[1] = test system: dextran sodium sulfate-induced colitis; assay: Therapeutic effect on remission/relapse model of dextran sodium sulfate-induced colitis in mice; assay type: in vivo, BALB/c mice; conditions: SASP 100 mg/kg
Text: Next, therapeutic effect of compound F on colitis was studied in a chronic model. Female BALB/c mice, 6 weeks old, body weight about 20 g (Japan SLC) were purchased, acclimated for 1 week and used for the study. The mice were divided into a colitis induction group and a normal group. The colitis induction group was allowed to freely drink a 2.6 w/v% DSS (MP Biochemicals, M.W. 36,000- 50,000, Lot No. 4556J) solution to induce colitis. On day 8 when the stool score (defined in Example 23) of the colitis induction group reached about 4.5, the mice were subdivided into a control group, a compound F 1 mg/kg administration group and a salazosulfapyridine (SIGMA, Lot No. 085K1930, hereinafter to be abbreviated as SASP) 100 mg/kg administration group. Then the mice were allowed to freely drink distilled water instead of DSS solution for 9 days (remission period). After the grouping, the stool score was evaluated every 3 - 4 days. When the score of the control group reached about 1, the mice were again allowed to drink the DSS solution to cause a relapse (relapse period). The periods of remission and relapse were taken as 1 cycle and the cycle was repeated 5 times. As for the 5th cycle, however, only the remission period was performed.
Compound F at a dose of 1 mg/kg and SASP at a dose of 100 mg/kg were orally administered once a day, daily, for 50 days from the initial remission period (day 8 from the start of 2.6 w/v% DSS drinking) to the fifth remission period (day 57 from the start of 2.6 w/v% DSS drinking). To the control group was orally administered a solvent (1 vol% ethanol solution) at 10 mL/kg. If a mouse had score 0 of both stool consistency score and occult blood score on the last day of each remission period, the mouse was regarded as "in remission". The remission ratio (%) was calculated as a ratio of mice in remission in each group. Eight to 10 mice were used for each group and the results are shown in average value.

[2] = test system: anti-Thy-1 antibody-induced glomerulonephritis; assay: Anti-Thy-1 antibody-induced glomerulonephritis model in rats; assay type: in vivo, Wistar rats; conditions: oral 0.3 mg/kg twice a day
Method: Male Slc: Wistar rats (6 weeks old, Japan SLC) were purchased, acclimated for 1 week and used for the study. Except the normal group, anti-Thy-1 antibody (mouse anti-CD90 antibody (UK-Serotech Ltd. Code:MCA47XZ, clone No: MRC OX-7, Lot No.0303)) was administered once intravenously to the animals. A mixture of compound F and compound J (F:J = 52:41, indicated as compound F/J) was orally administered from the day of the antibody administration (day 0) to day 6, daily, twice a day (morning and evening; each 0.3 mg/kg). After 3 days from the antibody administration, urine was collected for one day. On day 7 of the antibody administration, the animal was autopsied. The right kidney was isolated, weighed and fixed with formalin. Five to 8 animals were used for each group and the results were expressed as average ± standard deviation.

[3] = test system: CD4+CD25- T cell transfer colitis; assay: Prophylactic effect on CD4+CD25- T cell transfer colitis model in mice; assay type: in vivo, C.B-17/Icr-scid mice; conditions: scid mice, oral 1 mg/kg once a day for 20 days
Method: Female BALB/cA Jcl mice, 6 weeks old, body weight 19 - 23 g (CLEA Japan, Inc.) and female C.B-17/Icr-scid mice (6 weeks old, CLEA Japan, Inc.) were purchased, acclimated for 1 week and used for the study. After laparotomy under ether anesthesia, BALB/cA Jcl mice were exsanguinated to death through the abdominal aorta and caudal vena cava, and the spleen was isolated. Splenocytes were prepared from the spleen and then CD4^+CD25^- T cells were prepared with a CD4^+ T cell Isolation Kit (No. 130-090-860, Milky Biotech Co., Ltd.) and CD25-Biotin antibody (No. 130-092-569, Milky Biotech Co., Ltd.). The cells were separated using the autoMACS Separator (Milky Biotech Co., Ltd.). The separated CD4^+CD25^- T cells were suspended in physiological phosphate buffer solution, and 2.5×10^5 cells per animal were intraperitoneally administered to C.B-17/Icr-scid mice to induce colitis. […] To the control group was orally administered a solvent (1 vol% ethanol solution) at 10 mL/kg. […] The fecal occult blood score was evaluated in the same manner as in Example 23. […] Eight to 10 mice were used for each group and the results were expressed as average.

[4] = test system: concanavalin A-induced hepatitis; assay: Prophylactic effect on concanavalin A-induced hepatitis model in mice; assay type: in vivo, BALB/c mice; conditions: oral 1 hr before Con A, compound F 1 mg/10 mL/kg, prednisolone 5 mg/10 mL/kg, 20 hr after Con A
Method: BALB/c mice (female, 7 weeks old, Japan SLC) were purchased, acclimated for 1 week and used for the study. Except the no-induction group, Con A (type IV, Sigma-Aldrich) dissolved in saline was administered from the tail vein of the mice at a dose of 12.5 mg/10 mL/kg to induce hepatitis. Twenty hr later, the mice were subjected to laparotomy under ether anesthesia. A 0.5 mL of blood sample was collected from the caudal vena cava and heparinized plasma was obtained to measure plasma ALT and AST activities. Test substances were compound F (1 mg/10 mL solution), prednisolone (Nacalai Tesque, 5 mg/10 mL suspension (with 0.5 w/v% methylcellulose)) and water for injection (administered to the control group), which were orally administered at a volume of 10 mL/kg 1 hr before Con A injection. Seven to 9 animals were used for each group. After logarithmic transformation of the data, one-way analysis of variance was performed for statistical evaluation.

[5] = mice, oral once a day, Compound F 1 mg/kg

O=C(O)c1cc(/N=N/c2ccc(S(=O)(=O)Nc3ccccn3)cc2)ccc1O [SASP, salazosulfapyridine, reference compound]
Remission Ratio Average ([1]; average of 5 remission periods, Compound F 1 mg/kg): 40.0%
effect on stool score in remission and relapse periods ([1]; mice, oral once a day for 50 days, compound F 1 mg/kg): did not show a clear effect on the stool score in either the remission period or the relapse period
Remission Ratio Cycle 1 [1, 5]: 50.0%
Remission Ratio Cycle 2 [1, 5]: 50.0%
Remission Ratio Cycle 3 [1, 5]: 37.5%
Remission Ratio Cycle 4 [1, 5]: 50.0%
Remission Ratio Cycle 5 [1, 5]: 12.5%

Cc1cccc(C(C)[C@H](O)/C=C/[C@@H]2[C@@H]3[C@H](C[C@H]2O)O/C(=C\CCCc2nnn[nH]2)C3(F)F)c1 (mixture of isomers) [compound F/J, 4-[(Z)-(1S,5R,6R,7R)-6-[(1E,3R,4RS)-3-hydroxy-4-(m-tolyl)-1-pentenyl]-7-hydroxy-2-oxa-4,4-difluoro-bicyclo[3.3.0]octan-3-ylidene]-1-(tetrazol-5-yl)butane]
body weight [2]: a shift similar to that of the control group
relative kidney weight ([2]; day 7): a value lower than control and near the normal
renal histopathology: total glomerular cells, mesangial region and PCNA-positive cells in the glomerulus ([2]; day 7): significantly suppressed the increase in all of these measures
24-hr urine protein ([2]; urine collected after 3 days): a lower value than control
24-hr urine volume ([2]; urine collected after 3 days): of the same level as the normal group

C[C@]12C=CC(=O)C=C1CC[C@@H]1[C@@H]2[C@@H](O)C[C@@]2(C)[C@H]1CC[C@]2(O)C(=O)CO [prednisolone, reference compound]
effect on body weight decrease score [3]: clearly worsened the score
effect on stool consistency score [3]: failed to show a clear effect on the stool consistency score on day 21
effect on increase of plasma ALT activity [4]: significantly and strongly suppressed the increase
effect on increase of plasma AST activity [4]: significantly and strongly suppressed the increase
